# From the supplement of paper PMC10132981, “Formate overflow drives toxic folate trapping in MTHFD1 inhibited cancer cells” (Nature Metabolism, 2023)
# ± gives the standard deviation of the averaged measurements.
# How the values were obtained:
# HCT116 = assay: EC50 for viability (resazurin, 96 h); conditions: RPMI+GlutaMAX (10% FBS, 1% P/S)
# SW620 MTHFD2 -/- = assay: EC50 for viability (resazurin, 96 h); conditions: RPMI+GlutaMAX (5% dFBS, 1% P/S)
# SW620 MTHFD2-/- [1] = assay: EC50 for viability (resazurin, 96 h); conditions: RPMI+GlutaMAX (5% dFBS, 1% P/S)
# SW620 WT = assay: EC50 for viability (resazurin, 96 h); conditions: RPMI+GlutaMAX (5% dFBS, 1% P/S)
# SW620 = assay: EC50 for viability (resazurin, 96 h)
# SW620 MTHFD2-/- [2] = assay: cell viability relative to vehicle (resazurin, 96 h); higher = more viable; conditions: base medium: RPMI + dialysed FBS
# Procedure: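 SW620 WT or MTHFD2-/- cells were treated for 96 h with a compound dilution series (log10 M) in RPMI with normal or dialysed FBS. Viability was read by resazurin and is given as % of vehicle.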
# [3] = metabolite supplement: Hypoxanthine
# [4] = metabolite supplement: Thymidine
# [5] = metabolite supplement: Sodium Formate
# [6] = metabolite supplement: Thymidine + Sodium Formate
smiles,measurement,setting,value
CN(Cc1cnc2nc(N)nc(N)c2n1)c1ccc(C(=O)N[C@@H](CCC(=O)O)C(=O)O)cc1 [methotrexate],EC50 for viability,HCT116; [3],20.3 nM
same,EC50 for viability,HCT116; [4],12.6 nM
same,EC50 for viability,SW620 MTHFD2 -/-; [3],16.7 nM
same,EC50 for viability,SW620 MTHFD2 -/-; [5],10.6 nM
same,EC50 for viability,SW620 MTHFD2 -/-; [4],2.67 ± 1.6 nM
same,EC50 for viability,SW620 MTHFD2 -/-; [6],9.38 nM
same,EC50 for viability,SW620 MTHFD2 -/-; metabolite supplement: Vehicle,2.33 ± 2.8 nM
same,EC50 for viability,SW620 MTHFD2-/- [1]; metabolite supplement: Formate,2.14 nM
same,EC50 for viability,SW620 MTHFD2-/- [1]; [3],12 nM
same,EC50 for viability,SW620 MTHFD2-/- [1]; metabolite supplement: Hypoxanthine + Formate,12.9 nM
same,EC50 for viability,SW620 WT; metabolite supplement: Adenine,31 nM
same,EC50 for viability,SW620 WT; metabolite supplement: Adenosine,34.5 nM
same,EC50 for viability,SW620 WT; metabolite supplement: Guanosine,19.8 nM
same,EC50 for viability,SW620 WT; [3],21.1 ± 0.86 nM
same,EC50 for viability,SW620 WT; metabolite supplement: Hypoxanthine + AICAr 10 µM,18.1 nM
same,EC50 for viability,SW620 WT; metabolite supplement: Hypoxanthine + AICAr 30 µM,21.9 nM
same,EC50 for viability,SW620 WT; metabolite supplement: Hypoxanthine + AICAr 50 µM,14.2 nM
same,EC50 for viability,SW620 WT; metabolite supplement: Hypoxanthine + AICAr 100 µM,11.3 nM
same,EC50 for viability,SW620 WT; [5],6.74 nM
same,EC50 for viability,SW620 WT; [4],8.47 ± 1.8 nM
same,EC50 for viability,SW620 WT; [6],6.79 nM
same,EC50 for viability,SW620 WT; metabolite supplement: Vehicle,6.53 ± 0.56 nM
same,EC50 for viability,"SW620; HPLM (5% dFBS, 1% P/S), metabolite supplement: Vehicle",27 nM
same,EC50 for viability,"SW620; RPMI+GlutaMAX (5% dFBS, 1% P/S), metabolite supplement: 50 µM Hypoxanthine",21.8 ± 2.6 nM
same,EC50 for viability,"SW620; RPMI+GlutaMAX (5% dFBS, 1% P/S), metabolite supplement: Vehicle",8.7 ± 2.5 nM
same,EC50 for viability,"SW620; RPMI+GlutaMAX (10% FBS, 1% P/S), metabolite supplement: Folic acid",96.3 nM
same,EC50 for viability,"SW620; RPMI+GlutaMAX (10% FBS, 1% P/S), metabolite supplement: Folinic acid",366 nM
same,EC50 for viability,"SW620; RPMI+GlutaMAX (10% FBS, 1% P/S), metabolite supplement: Hypoxanthine",26.2 nM
same,EC50 for viability,"SW620; RPMI+GlutaMAX (10% FBS, 1% P/S), metabolite supplement: Thymidine",12.4 ± 2.1 nM
same,EC50 for viability,"SW620; RPMI+GlutaMAX (10% FBS, 1% P/S), metabolite supplement: Thymidine + Folic acid",81.8 nM
same,EC50 for viability,"SW620; RPMI+GlutaMAX (10% FBS, 1% P/S), metabolite supplement: Thymidine + Folinic acid",388 nM
same,EC50 for viability,"SW620; RPMI+GlutaMAX (10% FBS, 1% P/S), metabolite supplement: Vehicle",11.6 ± 4.3 nM
same,cell viability,"SW620 MTHFD2-/- [2]; log10 compound concentration (M): -6, supplement / serum: 50 μM Hypoxanthine",6.45 ± 1.8%
same,cell viability,"SW620 MTHFD2-/- [2]; log10 compound concentration (M): -6, supplement / serum: 50 μM Thymidine + 50 μM Hypoxanthine",111 ± 30%
same,cell viability,"SW620 MTHFD2-/- [2]; log10 compound concentration (M): -6, supplement / serum: 50 μM Thymidine",6.68 ± 2%
same,cell viability,"SW620 MTHFD2-/- [2]; log10 compound concentration (M): -6, supplement / serum: Hypoxanthine+Sodium Formate+Thymidine",93.3 ± 22%
same,cell viability,"SW620 MTHFD2-/- [2]; log10 compound concentration (M): -6, supplement / serum: Hypoxanthine+Sodium Formate",6.18 ± 0.99%
same,cell viability,"SW620 MTHFD2-/- [2]; log10 compound concentration (M): -6, supplement / serum: Hypoxanthine",6.76 ± 0.79%
same,cell viability,"SW620 MTHFD2-/- [2]; log10 compound concentration (M): -6, supplement / serum: No metabolite",7.7 ± 3.4%
same,cell viability,"SW620 MTHFD2-/- [2]; log10 compound concentration (M): -6, supplement / serum: Sodium Formate",7.05 ± 0.31%
same,cell viability,"SW620 MTHFD2-/- [2]; log10 compound concentration (M): -6, supplement / serum: Vehicle",7.38 ± 2%
same,cell viability,"SW620 MTHFD2-/- [2]; log10 compound concentration (M): -6.47712, supplement / serum: 50 μM Hypoxanthine",6.99 ± 0.59%
same,cell viability,"SW620 MTHFD2-/- [2]; log10 compound concentration (M): -6.47712, supplement / serum: 50 μM Thymidine + 50 μM Hypoxanthine",115 ± 30%
same,cell viability,"SW620 MTHFD2-/- [2]; log10 compound concentration (M): -6.47712, supplement / serum: 50 μM Thymidine",7.63 ± 1.5%
same,cell viability,"SW620 MTHFD2-/- [2]; log10 compound concentration (M): -6.47712, supplement / serum: Hypoxanthine+Sodium Formate+Thymidine",112 ± 12%
same,cell viability,"SW620 MTHFD2-/- [2]; log10 compound concentration (M): -6.47712, supplement / serum: Hypoxanthine+Sodium Formate",6.79 ± 1.1%
same,cell viability,"SW620 MTHFD2-/- [2]; log10 compound concentration (M): -6.47712, supplement / serum: Hypoxanthine",7.12 ± 0.93%
same,cell viability,"SW620 MTHFD2-/- [2]; log10 compound concentration (M): -6.47712, supplement / serum: No metabolite",7.99 ± 1.3%
same,cell viability,"SW620 MTHFD2-/- [2]; log10 compound concentration (M): -6.47712, supplement / serum: Sodium Formate",7.19 ± 0.6%
same,cell viability,"SW620 MTHFD2-/- [2]; log10 compound concentration (M): -6.47712, supplement / serum: Vehicle",7.78 ± 0.39%
same,cell viability,"SW620 MTHFD2-/- [2]; log10 compound concentration (M): -6.95424, supplement / serum: 50 μM Hypoxanthine",7.25 ± 0.99%
same,cell viability,"SW620 MTHFD2-/- [2]; log10 compound concentration (M): -6.95424, supplement / serum: 50 μM Thymidine + 50 μM Hypoxanthine",111 ± 12%
same,cell viability,"SW620 MTHFD2-/- [2]; log10 compound concentration (M): -6.95424, supplement / serum: 50 μM Thymidine",7.71 ± 0.92%
same,cell viability,"SW620 MTHFD2-/- [2]; log10 compound concentration (M): -6.95424, supplement / serum: Hypoxanthine+Sodium Formate+Thymidine",107 ± 6.9%
same,cell viability,"SW620 MTHFD2-/- [2]; log10 compound concentration (M): -6.95424, supplement / serum: Hypoxanthine+Sodium Formate",7.62 ± 1.2%
same,cell viability,"SW620 MTHFD2-/- [2]; log10 compound concentration (M): -6.95424, supplement / serum: Hypoxanthine",7.47 ± 1.2%
same,cell viability,"SW620 MTHFD2-/- [2]; log10 compound concentration (M): -6.95424, supplement / serum: No metabolite",8.02 ± 0.63%
same,cell viability,"SW620 MTHFD2-/- [2]; log10 compound concentration (M): -6.95424, supplement / serum: Sodium Formate",7.59 ± 0.76%
same,cell viability,"SW620 MTHFD2-/- [2]; log10 compound concentration (M): -6.95424, supplement / serum: Vehicle",7.71 ± 1.6%
same,cell viability,"SW620 MTHFD2-/- [2]; log10 compound concentration (M): -7.43136, supplement / serum: 50 μM Hypoxanthine",14.5 ± 2.3%
same,cell viability,"SW620 MTHFD2-/- [2]; log10 compound concentration (M): -7.43136, supplement / serum: 50 μM Thymidine + 50 μM Hypoxanthine",95.6 ± 1.9%
same,cell viability,"SW620 MTHFD2-/- [2]; log10 compound concentration (M): -7.43136, supplement / serum: 50 μM Thymidine",7.18 ± 1%
same,cell viability,"SW620 MTHFD2-/- [2]; log10 compound concentration (M): -7.43136, supplement / serum: Hypoxanthine+Sodium Formate+Thymidine",98.6 ± 4.9%
same,cell viability,"SW620 MTHFD2-/- [2]; log10 compound concentration (M): -7.43136, supplement / serum: Hypoxanthine+Sodium Formate",11.1 ± 2.4%
same,cell viability,"SW620 MTHFD2-/- [2]; log10 compound concentration (M): -7.43136, supplement / serum: Hypoxanthine",11.5 ± 3.9%
